# Data from ChEMBL document CHEMBL2203036, “Discovery of 1-[2-(2,4-dimethylphenylsulfanyl)phenyl]piperazine (Lu AA21004): a novel multimodal compound for the treatment of major depressive disorder” (J Med Chem, 2011).
# Activity calls are given as the source filed them. The rule behind the calls is not given here.
# Key:
# [1] = molecular target: T1, 5-hydroxytryptamine receptor 3A (Homo sapiens, UniProt P46098); experiment: Binding affinity to human 5HT3A receptor
# T1 sequence (P46098 whole entry): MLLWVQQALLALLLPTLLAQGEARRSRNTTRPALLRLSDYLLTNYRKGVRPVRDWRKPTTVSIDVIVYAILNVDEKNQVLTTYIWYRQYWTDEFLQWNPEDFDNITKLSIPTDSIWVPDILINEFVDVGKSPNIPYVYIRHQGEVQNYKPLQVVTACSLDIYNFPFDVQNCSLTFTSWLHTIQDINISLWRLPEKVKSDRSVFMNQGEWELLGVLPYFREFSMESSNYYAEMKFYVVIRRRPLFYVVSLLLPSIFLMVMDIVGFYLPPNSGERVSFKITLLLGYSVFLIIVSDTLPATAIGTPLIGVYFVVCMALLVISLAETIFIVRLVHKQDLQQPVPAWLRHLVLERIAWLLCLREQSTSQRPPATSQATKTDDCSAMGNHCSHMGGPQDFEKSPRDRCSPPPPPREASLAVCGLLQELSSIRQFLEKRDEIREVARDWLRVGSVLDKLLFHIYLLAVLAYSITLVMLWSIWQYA
# [2] = molecular target: T2, 5-hydroxytryptamine receptor 3A (Homo sapiens) (UniProt P46098); experiment: Agonist activity at human 5HT3A receptor expressed in xenopus oocytes by electrophysiological method relative to 5HT; settings: Oocyte
# T2 sequence (whole entry): T1 sequence (P46098 whole entry)
# [3] = molecular target: Beta-2 adrenergic receptor (Homo sapiens, UniProt P07550); experiment: Binding affinity to human beta 2 adrenergic receptor
# [4] = molecular target: T1, 5-hydroxytryptamine receptor 3A; experiment: Antagonist activity at human 5HT3A receptor expressed in xenopus oocytes assessed as inhibition of 5HT-induced effect by electrophysiological method; format: functional, cell-based, Oocyte
# [5] = molecular target: Sodium-dependent dopamine transporter (Rattus norvegicus, UniProt P23977); experiment: Inhibition of DAT-mediated [3H]DA in rat synaptosomes by scintillation counting; format: subcellular, Brain
# Chain of Sodium-dependent dopamine transporter (P23977 whole entry): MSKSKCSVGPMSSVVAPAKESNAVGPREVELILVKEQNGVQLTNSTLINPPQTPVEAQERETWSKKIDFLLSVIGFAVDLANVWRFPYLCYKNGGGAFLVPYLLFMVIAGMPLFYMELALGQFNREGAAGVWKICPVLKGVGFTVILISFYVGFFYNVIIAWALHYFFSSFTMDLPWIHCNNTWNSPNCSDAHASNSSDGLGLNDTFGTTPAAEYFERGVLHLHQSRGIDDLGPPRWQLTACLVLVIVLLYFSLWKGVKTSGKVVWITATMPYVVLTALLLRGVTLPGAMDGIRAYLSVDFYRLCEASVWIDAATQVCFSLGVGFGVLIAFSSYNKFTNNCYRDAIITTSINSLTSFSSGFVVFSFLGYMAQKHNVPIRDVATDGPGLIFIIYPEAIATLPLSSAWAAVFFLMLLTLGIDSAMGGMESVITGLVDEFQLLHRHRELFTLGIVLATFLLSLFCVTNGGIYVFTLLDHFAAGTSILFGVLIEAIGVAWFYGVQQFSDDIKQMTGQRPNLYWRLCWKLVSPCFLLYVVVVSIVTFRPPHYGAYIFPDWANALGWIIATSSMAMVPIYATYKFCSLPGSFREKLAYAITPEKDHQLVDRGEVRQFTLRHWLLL
# [6] = molecular target: Melanocortin receptor 4 (Homo sapiens) (UniProt P32245); experiment: Inhibition of human MC4 receptor at 1 uM
# Chain of Melanocortin receptor 4 (Homo sapiens) (P32245 whole entry): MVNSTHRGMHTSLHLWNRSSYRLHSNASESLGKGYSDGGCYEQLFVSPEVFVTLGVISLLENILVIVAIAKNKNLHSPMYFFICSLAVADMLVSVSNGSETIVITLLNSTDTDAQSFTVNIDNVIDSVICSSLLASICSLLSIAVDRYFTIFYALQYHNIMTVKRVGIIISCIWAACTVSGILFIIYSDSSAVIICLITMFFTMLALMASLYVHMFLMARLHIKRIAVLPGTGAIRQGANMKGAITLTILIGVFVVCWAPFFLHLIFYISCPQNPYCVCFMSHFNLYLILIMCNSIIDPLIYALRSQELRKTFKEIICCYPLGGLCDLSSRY
# [7] = molecular target: 5-hydroxytryptamine receptor 2C (Homo sapiens, UniProt P28335); experiment: Binding affinity to human 5HT2C receptor
# Chain of 5-hydroxytryptamine receptor 2C (P28335 whole entry): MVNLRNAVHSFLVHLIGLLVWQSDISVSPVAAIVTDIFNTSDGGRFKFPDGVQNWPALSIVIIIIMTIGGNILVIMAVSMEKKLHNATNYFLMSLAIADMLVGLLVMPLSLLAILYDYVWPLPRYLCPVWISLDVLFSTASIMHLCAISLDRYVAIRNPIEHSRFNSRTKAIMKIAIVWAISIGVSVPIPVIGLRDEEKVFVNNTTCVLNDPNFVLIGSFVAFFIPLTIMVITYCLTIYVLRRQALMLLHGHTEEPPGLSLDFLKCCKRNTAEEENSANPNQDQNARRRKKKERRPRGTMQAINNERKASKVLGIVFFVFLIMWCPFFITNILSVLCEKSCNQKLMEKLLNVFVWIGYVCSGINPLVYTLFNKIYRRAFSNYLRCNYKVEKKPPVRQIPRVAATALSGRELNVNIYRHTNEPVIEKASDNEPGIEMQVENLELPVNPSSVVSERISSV
# [8] = molecular target: 5-hydroxytryptamine receptor 5A (Homo sapiens, UniProt P47898); experiment: Binding affinity to human 5HT5A receptor
# [9] = Oral bioavailability in rat at 2 mg/kg; format: ADME, organism-based; settings: in vivo
# [10] = tested on: Rattus norvegicus; experiment: Antidepression activity in Harlan rat assessed as increase in extracellular 5HT level in medial prefrontal cortex region at 5 to 10 mg/kg, sc administered QD for 3 days by microdialysis method
# [11] = molecular target: T3, Cytochrome P450 1A2 (Homo sapiens, UniProt P05177); experiment: Inhibition of human recombinant CYP1A2 using 7-ethoxy-3-cyanocoumarin after 28 mins by fluorescence spectrophotometric analysis; format: ADME
# T3 sequence (P05177 whole entry): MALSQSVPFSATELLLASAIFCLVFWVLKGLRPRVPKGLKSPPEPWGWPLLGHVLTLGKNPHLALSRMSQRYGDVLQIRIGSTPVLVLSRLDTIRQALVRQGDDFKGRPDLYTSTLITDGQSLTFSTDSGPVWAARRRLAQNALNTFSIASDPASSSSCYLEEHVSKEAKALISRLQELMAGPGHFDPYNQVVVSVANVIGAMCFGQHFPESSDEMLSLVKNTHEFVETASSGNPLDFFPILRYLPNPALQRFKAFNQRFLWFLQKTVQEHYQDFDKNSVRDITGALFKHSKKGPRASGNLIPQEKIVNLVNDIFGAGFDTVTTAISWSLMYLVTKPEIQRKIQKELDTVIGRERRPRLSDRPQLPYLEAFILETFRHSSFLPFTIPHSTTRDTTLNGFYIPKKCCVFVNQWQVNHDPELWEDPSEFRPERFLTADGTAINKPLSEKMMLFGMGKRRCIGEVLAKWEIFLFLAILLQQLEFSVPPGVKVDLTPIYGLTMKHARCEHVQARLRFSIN
# [12] = molecular target: 5-hydroxytryptamine receptor 6 (Homo sapiens, UniProt P50406); experiment: Binding affinity to human 5HT6 receptor
# Chain of 5-hydroxytryptamine receptor 6 (P50406 whole entry): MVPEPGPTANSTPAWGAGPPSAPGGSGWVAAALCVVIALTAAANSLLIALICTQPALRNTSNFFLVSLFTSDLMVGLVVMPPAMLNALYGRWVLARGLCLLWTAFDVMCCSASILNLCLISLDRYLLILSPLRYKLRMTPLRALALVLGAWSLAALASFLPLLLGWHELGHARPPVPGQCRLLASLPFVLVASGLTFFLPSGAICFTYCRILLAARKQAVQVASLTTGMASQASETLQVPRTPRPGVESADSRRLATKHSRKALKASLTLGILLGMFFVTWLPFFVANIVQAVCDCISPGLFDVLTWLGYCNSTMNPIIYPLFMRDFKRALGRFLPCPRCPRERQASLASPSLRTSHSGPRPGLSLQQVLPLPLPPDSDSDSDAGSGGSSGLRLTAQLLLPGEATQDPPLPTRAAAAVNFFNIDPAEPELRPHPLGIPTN
# [13] = molecular target: 5-hydroxytryptamine receptor 3A (Rattus norvegicus, UniProt P35563); experiment: Antagonist activity at rat 5HT3A receptor expressed in xenopus oocytes assessed as inhibition of 5HT-induced effect by electrophysiological method; format: functional, cell-based, Oocyte
# Chain of 5-hydroxytryptamine receptor 3A (Rattus norvegicus, UniProt P35563) (P35563 whole entry): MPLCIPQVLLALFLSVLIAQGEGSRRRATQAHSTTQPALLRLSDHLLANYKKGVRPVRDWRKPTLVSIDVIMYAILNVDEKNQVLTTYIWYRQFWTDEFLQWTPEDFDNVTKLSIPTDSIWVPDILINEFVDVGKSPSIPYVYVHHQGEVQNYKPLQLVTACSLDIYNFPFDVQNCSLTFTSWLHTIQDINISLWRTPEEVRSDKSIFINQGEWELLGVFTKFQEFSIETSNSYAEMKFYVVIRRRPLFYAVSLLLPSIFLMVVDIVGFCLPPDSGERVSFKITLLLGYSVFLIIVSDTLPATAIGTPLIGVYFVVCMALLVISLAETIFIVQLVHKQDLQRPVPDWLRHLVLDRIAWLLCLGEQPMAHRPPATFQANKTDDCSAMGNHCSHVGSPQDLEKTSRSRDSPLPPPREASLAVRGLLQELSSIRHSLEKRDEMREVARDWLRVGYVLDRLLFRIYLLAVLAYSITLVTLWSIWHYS
# [14] = tested on: Rattus norvegicus; experiment: Target occupancy at SERT in Harlan rat at 5 mg/kg, sc administered QD for 3 days relative to vehicle-treated control; format: functional; settings: route subcutaneous
# [15] = molecular target: Histamine H1 receptor (Homo sapiens, UniProt P35367); experiment: Binding affinity to human histamine H1 receptor
# Chain of Histamine H1 receptor (P35367 whole entry): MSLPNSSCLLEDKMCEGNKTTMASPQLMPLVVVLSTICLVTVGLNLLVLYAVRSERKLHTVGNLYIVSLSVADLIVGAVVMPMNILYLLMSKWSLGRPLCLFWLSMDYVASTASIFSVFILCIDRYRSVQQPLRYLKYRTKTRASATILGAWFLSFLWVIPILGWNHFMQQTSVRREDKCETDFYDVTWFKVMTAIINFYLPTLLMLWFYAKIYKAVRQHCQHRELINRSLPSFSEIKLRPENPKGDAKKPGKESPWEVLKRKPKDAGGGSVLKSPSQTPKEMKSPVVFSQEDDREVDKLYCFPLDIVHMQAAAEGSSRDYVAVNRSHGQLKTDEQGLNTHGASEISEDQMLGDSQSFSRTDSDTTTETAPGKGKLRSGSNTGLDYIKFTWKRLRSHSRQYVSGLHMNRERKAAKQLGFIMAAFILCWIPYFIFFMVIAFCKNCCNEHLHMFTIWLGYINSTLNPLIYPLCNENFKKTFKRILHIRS
# [16] = tested on: Rattus norvegicus; experiment: Target occupancy at SERT in Harlan rat at 10 mg/kg, sc administered QD for 3 days relative to vehicle-treated control; format: functional; settings: route subcutaneous
# [17] = molecular target: Cytochrome P450 2D6 (Homo sapiens, UniProt P10635); experiment: Inhibition of human recombinant CYP2D6 using 3-[2-(N,N-diethyl-N-methylamino)ethyl]-7-methoxy- 4-methylcoumarin after 45 mins by fluorescence spectrophotometric analysis; format: ADME
# [18] = molecular target: T4, 5-hydroxytryptamine receptor 1B (Homo sapiens, UniProt P28222); experiment: Binding affinity at human 5HT1B receptor
# T4 sequence (P28222 whole entry): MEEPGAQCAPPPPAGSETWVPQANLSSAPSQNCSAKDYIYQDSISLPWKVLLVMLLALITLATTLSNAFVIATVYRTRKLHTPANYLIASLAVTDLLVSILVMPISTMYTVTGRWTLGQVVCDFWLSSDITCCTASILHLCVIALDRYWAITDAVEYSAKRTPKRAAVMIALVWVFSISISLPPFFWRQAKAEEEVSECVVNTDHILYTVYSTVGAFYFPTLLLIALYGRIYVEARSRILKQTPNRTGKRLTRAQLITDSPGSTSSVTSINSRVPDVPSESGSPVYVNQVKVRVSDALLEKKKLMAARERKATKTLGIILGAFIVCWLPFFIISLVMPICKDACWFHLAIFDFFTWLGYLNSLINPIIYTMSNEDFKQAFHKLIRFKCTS
# [19] = molecular target: T2, 5-hydroxytryptamine receptor 3A (Homo sapiens); experiment: Inhibition of human 5HT3A receptor at 1 uM
# [20] = molecular target: T2, 5-hydroxytryptamine receptor 3A (Homo sapiens); experiment: Agonist activity at human 5HT3A receptor expressed in xenopus oocytes by electrophysiological method in presence of ondansetron; settings: Oocyte
# [21] = molecular target: T4, 5-hydroxytryptamine receptor 1B; experiment: Partial agonist activity at human 5HT1B receptor expressed in CHO cells assessed as [35S]GTPgammaS binding; format: functional, cell-based
# [22] = tested on: Rattus norvegicus; experiment: Antidepression activity in Harlan rat assessed as increase in extracellular 5HT level in ventral hippocampus region at 5 to 10 mg/kg, sc measured from 40 to 180 mins by microdialysis method
# [23] = tested on: Rattus norvegicus; experiment: Antidepression activity in Harlan rat assessed as increase in extracellular 5HT level in ventral hippocampus region at 2.5 mg/kg, sc measured from 60 to 120 mins by microdialysis method
# [24] = molecular target: Cytochrome P450 2C9 (Homo sapiens, UniProt P11712); experiment: Inhibition of human recombinant CYP2C9 using dibenzylfluorescein after 45 mins by fluorescence spectrophotometric analysis; format: ADME
# Chain of Cytochrome P450 2C9 (P11712 whole entry): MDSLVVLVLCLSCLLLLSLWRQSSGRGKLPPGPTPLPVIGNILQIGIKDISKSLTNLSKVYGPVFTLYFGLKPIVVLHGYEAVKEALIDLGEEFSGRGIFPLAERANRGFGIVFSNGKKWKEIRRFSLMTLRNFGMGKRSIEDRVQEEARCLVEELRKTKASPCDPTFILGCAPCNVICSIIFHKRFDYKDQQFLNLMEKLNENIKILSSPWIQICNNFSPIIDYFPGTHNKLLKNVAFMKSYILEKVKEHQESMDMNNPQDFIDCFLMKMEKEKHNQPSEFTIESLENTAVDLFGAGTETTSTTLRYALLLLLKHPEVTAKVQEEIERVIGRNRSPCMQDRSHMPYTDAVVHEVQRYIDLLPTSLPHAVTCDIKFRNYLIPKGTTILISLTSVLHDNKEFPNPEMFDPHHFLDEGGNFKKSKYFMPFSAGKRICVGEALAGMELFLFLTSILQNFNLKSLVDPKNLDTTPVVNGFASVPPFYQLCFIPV
# [25] = tested on: Rattus norvegicus; experiment: Antidepression activity in sc dosed Harlan rat assessed as increase in extracellular 5HT level in ventral hippocampus region measured up to 180 mins by microdialysis method
# [26] = molecular target: Beta-1 adrenergic receptor (Homo sapiens, UniProt P08588); experiment: Binding affinity to human beta 1 adrenergic receptor
# Chain of Beta-1 adrenergic receptor (P08588 whole entry): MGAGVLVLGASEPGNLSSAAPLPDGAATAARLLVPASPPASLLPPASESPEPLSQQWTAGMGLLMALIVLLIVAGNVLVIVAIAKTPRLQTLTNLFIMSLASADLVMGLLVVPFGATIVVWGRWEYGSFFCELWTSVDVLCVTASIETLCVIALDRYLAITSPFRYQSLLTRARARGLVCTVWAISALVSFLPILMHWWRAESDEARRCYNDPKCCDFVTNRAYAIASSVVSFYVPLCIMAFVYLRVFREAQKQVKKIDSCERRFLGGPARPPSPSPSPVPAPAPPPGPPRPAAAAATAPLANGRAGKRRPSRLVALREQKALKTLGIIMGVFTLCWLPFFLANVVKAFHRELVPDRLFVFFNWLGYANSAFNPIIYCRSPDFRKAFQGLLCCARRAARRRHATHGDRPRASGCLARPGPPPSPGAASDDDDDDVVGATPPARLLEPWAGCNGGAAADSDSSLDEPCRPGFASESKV
# [27] = molecular target: Cytochrome P450 3A4 (Homo sapiens, UniProt P08684); experiment: Inhibition of human recombinant CYP3A4 using resorufin benzyl ether after 30 mins by fluorescence spectrophotometric analysis; format: ADME
# Chain of Cytochrome P450 3A4 (P08684 whole entry): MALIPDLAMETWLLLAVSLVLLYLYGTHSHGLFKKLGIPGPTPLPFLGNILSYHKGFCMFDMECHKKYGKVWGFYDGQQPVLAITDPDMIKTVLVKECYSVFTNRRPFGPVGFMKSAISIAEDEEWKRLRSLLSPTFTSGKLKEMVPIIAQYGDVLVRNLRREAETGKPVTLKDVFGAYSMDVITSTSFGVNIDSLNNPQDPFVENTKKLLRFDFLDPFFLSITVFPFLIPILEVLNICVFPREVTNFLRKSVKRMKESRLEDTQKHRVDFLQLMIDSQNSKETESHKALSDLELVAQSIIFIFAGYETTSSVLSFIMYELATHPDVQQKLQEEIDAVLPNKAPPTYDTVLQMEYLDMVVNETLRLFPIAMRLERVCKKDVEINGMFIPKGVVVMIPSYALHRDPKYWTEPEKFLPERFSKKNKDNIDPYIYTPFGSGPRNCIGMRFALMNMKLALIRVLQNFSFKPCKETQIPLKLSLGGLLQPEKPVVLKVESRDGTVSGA
# [28] = Inhibition of NET-mediated [3H]NE in rat synaptosomes by scintillation counting; format: subcellular, Brain
compound,measurement,setting,value
Cc1ccc(Sc2ccccc2N2CCNCC2)c(C)c1.Cl,Ki,[1],0.0037 µM
same,Efficacy,[2],64%
same,Ki,[3],0.56 µM
same,IC50,[4],0.012 µM
same,IC50,[5],0.89 µM
same,inhibition,[6],51%
same,Ki,[7],0.18 µM
same,Ki,[8],0.22 µM
same,bioavailability,[9],16%
same,Activity,[10],Active
same,IC50,[11],40 µM
same,Ki,[12],0.33 µM
same,IC50,[13],0.00018 µM
same,Occ,[14],43%
same,Ki,[15],0.18 µM
same,Occ,[16],57%
same,IC50,[17],9.8 µM
same,Ki,[18],0.033 µM
same,inhibition,[19],100%
same,Activity,[20],inactive
same,EC50,[21],0.12 µM
same,Activity,[22],Active
same,Activity,[23],Active
same,IC50,[24],39 µM
same,Activity,[25],Dose-dependent effect
same,Ki,[26],0.046 µM
same,IC50,[27],10 µM
same,IC50,[28],0.14 µM
